According to patent US20250099491A1, “PREVENTION OR TREATMENT OF CARDIOVASCULAR DISEASES WITH HIGH PENETRATION PRODRUGS OF ASPIRIN AND OTHER NSAIDS” (Techfields Inc., priority 2022, published 2025):

Assays:
[1] = following topical spray
Procedure: Each cohort began with single dose administration of study drug on Day 1 of the cohort's study schedule.
For single dose PK analysis, serial blood samples were collected following the Day 1 dose at the following time points: 0 (pre-dose), 0.25, 0.5, 0.75, 1, 1.5, 2, 2.5, 3, 4, 5, 6, 8, 10, 12, 18, 24, 48, 72, 96 and 120 hours post-dose. For multiple-dose PK analysis, serial blood samples were collected following the last morning dose on Day 12 according to the same schedule used for the single-dose PK analysis. In addition, daily trough PK samples were collected prior to the morning dose on Days 7 through 11.

[2] = system: rats with acute ischemia induced by Middle Cerebral Artery Occlusion (MCAO); assay: Example 14: acute ischemia induced by middle cerebral artery occlusion (MCAO) in rats; type: in vivo, rat; details: for mortalities: deaths of animals in group; for infarct volume: Day 14 after MCAO, TTC staining, mean±SEM
[3] = system: rats, minipigs, rabbits, guinea pigs, Ames, CHO-WBL Cells; assay: Nonclinical pharmacology and toxicology battery; type: in vivo; details: battery of GLP dermal toxicity, genotoxicity, safety pharmacology, irritation and sensitization studies
Procedure: A battery of pharmacology and toxicology studies were conducted to support early clinical trials, including a GLP acute dermal maximum tolerated dose study in rats, a GLP acute dermal maximum tolerated dose study in minipigs, a 28-day GLP repeated dermal dose toxicity and toxicokinetics study in rats with 14-day recovery, a 28-day GLP repeated dermal dose toxicity and toxicokinetics study in minipigs with 14-day recovery, a GLP bacterial reverse mutation assay (Ames), a GLP in vitro chromosome aberration assay in CHO-WBL Cells, a GLP in vivo bone marrow micronucleus assay in rats, a behavioral effects in rats using the functional observational battery, a rat respiratory safety pharmacology study, a cardiovascular telemetry study in the unrestrained conscious minipigs, a skin irritation study in rabbits, and a sensitization test in guinea pigs.

[4] = system: myocardial infarction in minipigs; assay: Example 20: myocardial infarction efficacy study in minipigs (circumflex coronary artery thrombosis); type: in vivo, minipig; details: twice a day; for infarct volume (myocardial): 28 days after MCA thrombosis
Procedure: Total 24 male minipigs were used for this study. […] The minipigs were already quarantined and acclimated. Before animal being transferred from holding colony, a physical examination was performed and the acceptability of the animals for the study was evaluated by veterinary. […] [table] […] Under anesthesia, thoracotomy was carried out and the circumflex coronary artery of the heart was exposed. The circumflex coronary artery thrombosis was induced by photochemical reaction. […] Photoirradiation was continued for a 30 min. […] After cutting the femoral artery, thoracotomy was carried out and the heart was removed. […] TTC regent for 5 min. After staining with TTC reagent, the photograph of the heart 5 blocks was taken. All blocks were immersed in 10% formalin neutral buffer solution. The 2nd block appeared large necrotic area was cut sections (thickness: 7-8 μm). Slice was stained with H & E reagent. […] The infarct lesions were defined as a necrotic portion of TTC stained blocks. […] The histopathological alteration (necrosis, inflammation, granulation, etc.) of myocardial infarction was examined using H & E stained slides.

[5] = system: middle cerebral artery (MCA) thrombosis model of monkeys; assay: Example 19: middle cerebral artery (MCA) thrombosis model of monkeys; details: for infarct volume: Day 28 after MCA thrombosis
Procedure: Aspirin was administered orally by gavage using a nasal catheter with a disposal syringe. The catheter was inserted into the stomach through the mouth. The treatment was once per day of MCA thrombosis (day 0), twice per day for 27 days.
The monkeys that had been fastened for at least 12 h were anesthetized with intramuscular administration of ketamine hydrochloride (20 mg/kg), and placed on an operation-bed. Anesthesia was continued with 1.0% isoflurane in O2 gas until 30 min. The inhalation anesthesia was performed with anesthesia machines (SN23402, Hallowell engineering and manufacturing corporation, USA) and respirators (SN23402, Hallowell engineering and manufacturing corporation, USA), and placed on an operation-bed. During anesthesia, body temperature of the animals (rectal temperature) was controlled between 37.0±0.5° C. by heating mattresses (XMTA-7000, Delixi Electric., Ltd.).
Under anesthesia, the left eye was enucleated using a bipolar coagulation device (Valleylab Force 1C, USA). A craniotomy was then performed supralaterally to the left side of the optic nerve. The next day animals were anesthetized with ketamine hydrochloride (20 mg/kg) and the dura and subarachnoid membrane were opened. MCA thrombosis was induced by photochemical reaction. The proximal part of the main MCA trunk. was irradiated with green light wave length 532 nm achieved by use of a xenon lamp (GL532T3-100FC, Shanghai Laser& Optics Century Col., Ltd.). The irradiation was directed by a 3-mm diameteroptic fiber mounted on a micromanipulator. Irradiation was started and rose bengal 20 mg/kg was injected intravenously. Photoirradiation was continued for a 30 min. The dura was then covered with a moist gelatin sponge.
Neurological deficits (see Table 3) were assessed 1, 3, 5, 7, 14 and 28 days after the onset of MCA thrombosis (day 0) in a blind manner. The neurological deficits was scored on consciousness, sensory system, motor system and skeletal muscle coordination, and the total neurological deficit score was calculated by summing the scores of consciousness, sensory system, motor system and skeletal muscle coordination.
The survival monkeys were deeply anesthetized with pentobarbital sodium (35 mg/kg, i.v.) 28 days after the onset of MCA thrombosis. After cutting the atriums of heart, 200 mL of heparinized physiological saline (10 U/mL) was allowed to perfuse the brain via the common carotid arteries, and followed by perfusion of 200 mL of 10% formalin neutral buffer solution. The whole brain was removed, and then was put in pathology sample preservation packs containing 10% formalin neutral buffer solution. For each brain sample, the coronal sections (thickness: 7-8 μm) per site were prepared at 10 sites at 4-mm intervals. Slices per site were each stained with H & E reagent.
Measurement of cerebral infarct lesions was carried out in a blind manner. The infarct lesions in the ischemic side are defined as a necrotic portion compared with that in the contralateral side. The infarcted area of left cerebral hemisphere (A) in the cross-sections was traced and measured using a computerized image analysis system (image J).
When the infarct size of 2 serial section was made into D and D′, the infarcted volume using the thickness (4 mm) of a section is measured in the following formula:
Total infarcted volume is calculated by summing the infarcted volume of the 10 serial sections.

[6] = high dose 30 mg/kg/time transdermal
[7] = low dose 15 mg/kg/time transdermal
[8] = high dose 30 mg/kg/time transdermal, twice a day
[9] = low dose 15 mg/kg/time transdermal, twice a day

Structure (SMILES): CCN(CC)CCOC(=O)c1ccccc1OC(C)=O.Cl [Compound-1]
- converted to salicylic acid [1]: ≥ 99%
- mortalities ([2]; high dose 60 mg/kg topical bid): 0 of 25
- infarct volume ([2]; low dose 15 mg/kg topical bid 14 days): 32.07%±2.061
- neuroprotective effect on brain ischemic injury ([2]; low, middle and high dose groups compared to vehicle group): good neuroprotective effect
- neurological deficit scores ([2]; low, middle and high dose groups vs vehicle group): show differences significantly
- body weight ([2]; low, middle and high dose groups, Day 5-14, vs vehicle group by t-test): increased
- infarct volume ([2]; middle dose 30 mg/kg topical bid 14 days): 27.11%±1.658
- mortalities ([2]; middle dose 30 mg/kg topical bid): 0 of 25
- nonclinical safety and tolerability [3]: safe and generally well tolerated
- degeneration of myocardium and myocardial necrosis (histopathology) [4, 6]: slight
- infarct volume (myocardial) [4, 6]: 138 mm^3
- degeneration of myocardium and myocardial necrosis (histopathology) [4, 7]: slight
- infarct volume (myocardial) [4, 7]: 177 mm^3
- infarct volume [5, 8]: 988 mm^3
- infarct volume [5, 9]: 945 mm^3
- Mortality rate [5, 8]: 0/7
- gemistocytic astrocytes in the penumbra area [5, 8]: many gemistocytic astrocytes
- liquefaction in the infarct area (histopathology) [5, 8]: slight
- Mortality rate [5, 9]: 0/5
- liquefaction in the infarct area (histopathology) [5, 9]: moderate
- neurologic deficits ([5]; low dose (15 mg/kg) and high dose (30 mg/kg) groups, transdermal twice a day): dose-dependently improved
- delayed neuronal death in the distant area ([5]; transdermal treatment groups): slightly
